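These data come from cells grown in 96-well plates and exposed to compound for 48 hours at five concentrations. Abbreviation: GI50, concentration required for 50% inhibition of growth. TGI: concentration producing complete growth inhibition.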 Bounds are passed on as bounds.

Some test systems named below: OVCAR-4 ovarian; SF-539 CNS; NCI-H460 lung; UACC-257 melanoma; NCI-H23 lung; SK-MEL-28 melanoma; HT29 colon; SW-620 colon; SK-MEL-2 melanoma; NCI/ADR-RES ovarian.
Common to all, as to assay: NCI anticancer screen, dose series, 48 h

In the case of `O=C1c2cccnc2C(=O)c2c1c(C(=O)OCCCN1CCCCC1)c1ccccn21`, the GI50 was 0.28 µM in the assay on OVCAR-4 ovarian; less than 0.0106 µM in the assay on SF-539 CNS; less than 0.01 µM in the assay with NCI-H460 lung; less than 0.01 µM in the assay on UACC-257 melanoma; less than 0.01 µM with NCI-H23 lung; 0.034 µM in the assay with SK-MEL-28 melanoma. For the same compound, the GI50 with HT29 colon is 0.0295 µM; in the assay on SW-620 colon it was less than 0.01 µM; in the assay on SK-MEL-2 melanoma it was 0.0303 µM; with NCI/ADR-RES ovarian, less than 0.01 µM. Moreover, the TGI was found to be 2 µM with OVCAR-4 ovarian; 0.0435 µM in the assay with SF-539 CNS; 0.0122 µM in the assay with NCI-H460 lung; 0.0549 µM in the assay with UACC-257 melanoma; 0.026 µM in the assay on NCI-H23 lung; 3.74 µM in the assay on SK-MEL-28 melanoma. The TGI in the assay on HT29 colon was 0.665 µM; in the assay on SW-620 colon, less than 0.0192 µM; in the assay with SK-MEL-2 melanoma, 0.0808 µM; in the assay on NCI/ADR-RES ovarian it was 0.225 µM.
For `O=C1CC/C(=C/COc2cc(=O)oc3ccccc23)O1`, the GI50 with OVCAR-4 ovarian was 1.62 µM; with SF-539 CNS, 6.01 µM; in the assay with NCI-H460 lung, 17.5 µM; with UACC-257 melanoma it was 12.9 µM; with NCI-H23 lung, 12.8 µM; in the assay on SK-MEL-28 melanoma, 14 µM. The GI50 is 4.38 µM in the assay on HT29 colon, 4.37 µM with SW-620 colon, 6.78 µM in the assay with SK-MEL-2 melanoma and 11.5 µM in the assay on NCI/ADR-RES ovarian. Further, the TGI with OVCAR-4 ovarian turned out to be 14.4 µM; in the assay with SF-539 CNS it was 21.1 µM; in the assay with NCI-H460 lung it was 47.2 µM; with UACC-257 melanoma, 27.7 µM; in the assay on NCI-H23 lung, 26.8 µM; in the assay with SK-MEL-28 melanoma it was 28.5 µM. The TGI in the assay with HT29 colon was 19.6 µM; in the assay with SW-620 colon, 18.2 µM; in the assay on SK-MEL-2 melanoma it was 37.1 µM; with NCI/ADR-RES ovarian it was 27.5 µM.
As to `COC(=O)[C@H](Cc1cn(C)cn1)NC(=O)[C@H](C)NC(=O)Nc1cc(C(F)(F)F)cc(C(F)(F)F)c1`, the GI50 in the assay on OVCAR-4 ovarian, with SF-539 CNS, with NCI-H460 lung, with UACC-257 melanoma, in the assay on NCI-H23 lung and in the assay on SK-MEL-28 melanoma was more than 10 µM each time. Moreover, the GI50 in the assay on HT29 colon, with SW-620 colon, with SK-MEL-2 melanoma and in the assay with NCI/ADR-RES ovarian was more than 10 µM throughout. In addition, the TGI with OVCAR-4 ovarian, in the assay with SF-539 CNS, with NCI-H460 lung, in the assay with UACC-257 melanoma, with NCI-H23 lung and in the assay on SK-MEL-28 melanoma was more than 10 µM each time. The TGI with HT29 colon, in the assay on SW-620 colon, with SK-MEL-2 melanoma and in the assay with NCI/ADR-RES ovarian was more than 10 µM each time.
Consider `NC(CSSCC(N)C(=O)O)C(=O)O` (stereo not given), for which the GI50 in the assay on OVCAR-4 ovarian, in the assay with SF-539 CNS, in the assay with NCI-H460 lung, in the assay with UACC-257 melanoma, with NCI-H23 lung and in the assay with SK-MEL-28 melanoma was more than 100 µM in each case. The GI50 in the assay with HT29 colon, with SW-620 colon, in the assay with SK-MEL-2 melanoma and in the assay with NCI/ADR-RES ovarian was more than 100 µM in each case. For the same compound, the TGI in the assay with OVCAR-4 ovarian, in the assay on SF-539 CNS, in the assay with NCI-H460 lung, with UACC-257 melanoma, in the assay with NCI-H23 lung and in the assay with SK-MEL-28 melanoma was more than 100 µM in each case. Besides, the TGI in the assay on HT29 colon, in the assay on SW-620 colon, in the assay on SK-MEL-2 melanoma and in the assay with NCI/ADR-RES ovarian was more than 100 µM in each case.
Turning to `CN(CCCCCl)P(=O)(OCc1ccc([N+](=O)[O-])o1)OCC1OC(n2cnc([N+](=O)[O-])c2N)C(O)C1O` (stereo not given), the GI50 in the assay with OVCAR-4 ovarian, in the assay with SF-539 CNS, with NCI-H460 lung, with UACC-257 melanoma, in the assay on NCI-H23 lung and in the assay with SK-MEL-28 melanoma was more than 100 µM throughout. Moreover, the GI50 in the assay with HT29 colon, in the assay on SW-620 colon, in the assay on SK-MEL-2 melanoma and in the assay with NCI/ADR-RES ovarian was more than 100 µM in each case. In addition, the TGI in the assay with OVCAR-4 ovarian, with SF-539 CNS, with NCI-H460 lung, with UACC-257 melanoma, with NCI-H23 lung and with SK-MEL-28 melanoma was more than 100 µM in each case. Also, the TGI with HT29 colon, in the assay with SW-620 colon, in the assay with SK-MEL-2 melanoma and in the assay on NCI/ADR-RES ovarian was more than 100 µM throughout.
For the compound `Cc1cc(O)c(C2=NN(c3ccc(S(N)(=O)=O)cc3)C(/C=C/c3ccccc3)C2)cc1Cl` (stereo not given), the GI50 is 3.74 µM in the assay on OVCAR-4 ovarian; 2.98 µM in the assay with SF-539 CNS; 4.03 µM in the assay with NCI-H460 lung; 14.5 µM in the assay on UACC-257 melanoma; 1.68 µM in the assay with NCI-H23 lung; 10.9 µM in the assay with SK-MEL-28 melanoma. Further, the GI50 is 3.73 µM in the assay on HT29 colon, 11.7 µM in the assay on SW-620 colon, 16.8 µM with SK-MEL-2 melanoma and 9.26 µM with NCI/ADR-RES ovarian. Also, the TGI with OVCAR-4 ovarian was 18.9 µM; in the assay on SF-539 CNS, 14 µM; in the assay with NCI-H460 lung, 17 µM; in the assay on UACC-257 melanoma, 45.7 µM; in the assay with NCI-H23 lung it was 12.5 µM; in the assay on SK-MEL-28 melanoma it was 23.8 µM. Besides, the TGI amounted to 14.7 µM in the assay on HT29 colon, 31.3 µM with SW-620 colon, 58.2 µM with SK-MEL-2 melanoma and 22.7 µM in the assay with NCI/ADR-RES ovarian.
As to `Cc1nc2cc(Nc3nc(Nc4ccc(F)cc4)nc(N4CCOCC4)n3)ccc2n1Cc1ccccc1`, the GI50 with OVCAR-4 ovarian is 4.47 µM; in the assay on SF-539 CNS it was 3.54 µM; with NCI-H460 lung it was 2.26 µM; in the assay on UACC-257 melanoma, 2.11 µM; with NCI-H23 lung, 6.43 µM; in the assay with SK-MEL-28 melanoma it was 3.17 µM. For the same compound, the GI50 in the assay on HT29 colon was 1.93 µM; in the assay on SW-620 colon, 3.97 µM; with SK-MEL-2 melanoma, 2.49 µM; in the assay on NCI/ADR-RES ovarian, 5.22 µM. The TGI is 41.8 µM in the assay on OVCAR-4 ovarian; 14.5 µM in the assay on SF-539 CNS; 5.02 µM in the assay on NCI-H460 lung; 4.42 µM in the assay with UACC-257 melanoma; 30.6 µM in the assay on NCI-H23 lung; 9.6 µM with SK-MEL-28 melanoma. Moreover, the TGI with HT29 colon is 4.07 µM; in the assay on SW-620 colon, 30.8 µM; with SK-MEL-2 melanoma, 4.94 µM; in the assay on NCI/ADR-RES ovarian it was 45.4 µM.

(Values after PubChem BioAssay (NCI).)
